A short description of data set [1]: In vivo PK experiments in beagle dogs, oral gavage. The protocol:
The samples were detected by LC-MS/MS, and AUC, Cmax, and Tmax parameters were calculated by employing WinNonlin version 6.4.

Data set [2] in a line: Solubility test in water and biological vehicles (FaSSIF, FeSSIF). Particulars: for solubility at 24 h: thermodynamic from solid, 37° C., HPLC, crystal form A calculated based on the free acid. In kind it is physicochemical.
For data set [3] the following is noted: background art; cited from earlier work.
The mark [4] stands for this setting: dog, blood, beagle dogs, P.O. 300 mg/kg, single oral gavage.

≈ marks a conversion by molar mass, not a printed value. Read-outs that look alike come from different tables or passages of the source.

Results on three compounds are retold here after patent US12098127B2, “Salt form of estrogen receptor downregulator, crystalline form thereof, and preparation method therefor” (LUOXIN PHARMACEUTICAL (SHANGHAI) CO., LTD., priority 2018, dated 2024).

One may read the AUC(0-t) as the area under the concentration-time curve up to a stated or last time point. A high value points to more exposure. One may read the Cmax as the peak of the concentration-time curve. What is called Tmax is the time from dosing to the highest level. Usually solubility stands for the dissolved amount per volume that the medium holds.

Regarding `CC/C(=C(/c1ccc(/C=C/C(=O)O)cc1)c1[nH]c2ccccc2c1Cl)c1ccc(F)cc1Cl` [compound of formula (I)], in data set [1] (in vivo pharmacokinetic studies, versus compound 1-8), the “Amount of exposure in the organism compared with compound 1-8” value is on record as “significantly increased”. Besides, in data set [2] (biological media, versus compound 1-8), the “Solubility in biological media compared with compound 1-8” value is recorded as “significantly improved”. In addition, in data set [2] (water, versus compound 1-8), the “Solubility in water compared with free acid compound 1-8” value is “nearly hundredfold improved”.
As for `C[C@]12CC[C@@H]3c4ccc(O)cc4C[C@@H](CCCCCCCCC[S+]([O-])CCCC(F)(F)C(F)(F)F)[C@H]3[C@@H]1CC[C@@H]2O` (some centres unmarked) [fulvestrant], in data set [3], the Oral bioavailability entry is on record as “zero oral bioavailability”.
`CC/C(=C(/c1ccc(/C=C/C(=O)O)cc1)c1[nH]c2ccccc2c1Cl)c1ccc(F)cc1Cl` [compound I-8] yielded an AUC(0-t) in data set [1] (setting [4]) of 613 µM·h. Further, the Cmax in data set [1] (setting [4]) amounted to 43.5 µM. Also, in data set [1] (setting [4]), the Tmax came out at 6 h. Moreover, the MRT last in data set [1] (dog, blood, beagle dogs, P.O. 300 mg/kg, single oral gavage, read-out: MRT0-last) was determined as 10.6 h. Further, the solubility at 24 h in data set [2] (FaSSIF (simulated pre-meal intestinal fluid), read-out: Solubility in FaSSIF) is 117 µg/mL (≈ 244 µM); in data set [2] (FeSSIF (simulated post-meal intestinal fluid), read-out: Solubility in FeSSIF) it was 440 µg/mL (≈ 916 µM); in data set [2] (purified water, read-out: Solubility in H2O) it was 8 µg/mL (≈ 16.7 µM).
